Reference: paper PMC4025172 (Breast Cancer Research and Treatment, 2014)
Read-outs that look alike come from different tables or passages of the source. Marks after values point to notes of the source that are not given here.

Key:
BC cells = conditions: depends on concentration and duration of action; cited from earlier work
[1] = tested on: E3 receptor complex / E2 receptor complex; conditions: cited from earlier work
[2] = cited from earlier work
nuclear ER = conditions: cited from earlier work
[3] = type: in vivo, human; conditions: for AUC(0–24),C2: parameter not reliable; for AUC(0-t) / Cmax / concentration at -0.5 h / Tmax: serum, other: vaginal, 0.03 mg
breast cancer = conditions: retrospective cohort study in Finland, postmenopausal patients; cited from earlier work
[4] = cited from earlier work; remark: listed apart in the source
[5] = vaginal ring or tablets with E2, postmenopausal BC patients (no AI therapy)
[6] = after 4 weeks of daily application

With `C[C@]12CC[C@@H]3c4ccc(O)cc4CC[C@H]3[C@@H]1CC[C@@H]2O` [E2, estradiol] as the molecule, how does the “effect on BC cells in vitro” value (BC cells) read?
The value was “can stimulate”.

What about the “nuclear retention time of the receptor complex” value [1] of the same molecule?
Its value is > 12 h.

And the “serum levels of E2” value ([2]; vaginal administration of any dose of E2 in AI users, ref [3]–[14], [15]–[18])?
Its value is “increases”.

And the “effect on vaginal atrophy” value [2, 5]?
The value was “efficiently relieved vaginal atrophy”.

What about the “serum levels of E2 and E1” value [2, 5] of the same molecule?
Its value is “temporarily raised”.

Which “effect on BC cells in vitro” value (BC cells) does the source give for `C[C@]12CC[C@@H]3c4ccc(O)cc4CC[C@H]3[C@@H]1C[C@@H](O)[C@@H]2O` [E3, estriol] here?
Its value is “can stimulate”.

And the “affinity to the nuclear ER as compared to E2” value (nuclear ER)?
The value was 10 times lower.

And the “t max,C2” value ([3]; Visit C2 (day 28), maximum)?
Its value is 8.0 h.

What about the “AUC(0–24),C2” value ([3]; Visit C2 (day 28), maximum) of the same molecule?
Its value is 0.457 ng·h/mL.

What about the “t max,C2” value ([3]; Visit C2 (day 28), minimum) of the same molecule?
The value was 4.0 h.

What about the “C max,C2” value ([3]; Visit C2 (day 28), minimum, LLOQ E3 10.00 pg/ml) of the same molecule?
The value was “<LLOQ”.

What about the “AUC(0–24),C2” value ([3]; Visit C2 (day 28), minimum) of the same molecule?
The value was “<LLOQ”.

And the “C max,E” value ([3]; Visit E (day 0), first application, maximum)?
Its value is 0.168 ng/mL.

And the “AUC(0–24),E” value ([3]; Visit E (day 0), maximum)?
Its value is 0.378 ng·h/mL.

And the “t max,E” value ([3]; Visit E (day 0), maximum)?
The value was 3.1 h.

What about the “AUC(0–24),E” value ([3]; Visit E (day 0), minimum) of the same molecule?
Its value is “<LLOQ”.

What about the “t max,E” value ([3]; Visit E (day 0), minimum) of the same molecule?
The value was 2.0 h.

And the “C max,E” value ([3]; Visit E (day 0), minimum, LLOQ E3 10.00 pg/ml)?
Its value is “<LLOQ”.

What about the “women with slightly increased serum E3” value ([3]; after 4 weeks) of the same molecule?
The value was 8 women.

What about the “patients without detectable increase of E3” value [3, 6] of the same molecule?
The value was 50%.

And the “women whose highest detected E3 level was below 20 pg/ml” value [3, 6]?
The value was 25%.

What about the “women with transient increase in serum E3” value ([3]; after the first application (visit E, day 0)) of the same molecule?
Its value is 15 of 16.

And the “trough serum E3 levels” value ([3]; all visits, all except two subjects, LLOQ 10.00 pg/ml)?
The value was “below LLOQ”.

What about the AUC(0-t) ([3]; female, human, AUC(0–24),C2, Visit C2 (day 28), mean, n=15, not reliable due to late metabolism and insufficient testing points) of the same molecule?
The AUC(0-t) was 0.131 ng·h/mL.

What about the AUC(0-t) ([3]; female, human, AUC(0–24),E, Visit E (day 0), GeoMean) of the same molecule?
The AUC(0-t) was 0.154 ng·h/mL.

What about the AUC(0-t) ([3]; female, human, AUC(0–24),E, Visit E (day 0), mean, n=16) of the same molecule?
The AUC(0-t) was 0.212 ng·h/mL.

And the AUC(0-t) ([3]; female, human, AUC(0–24),E, Visit E (day 0), median)?
Its AUC(0-t) is 0.241 ng·h/mL.

What about the Cmax ([3]; female, human, C max,C2, Visit C2 (day 28), GeoMean) of the same molecule?
The Cmax was 0.011 ng/mL.

And the Cmax ([3]; female, human, C max,C2, Visit C2 (day 28), mean, n=16)?
The Cmax was 0.0158 ng/mL.

And the Cmax ([3]; female, human, C max,C2, Visit C2 (day 28), median)?
Its Cmax is 0.0091 ng/mL.

And the Cmax ([3]; female, human, C max,E, Visit E (day 0), GeoMean)?
The Cmax was 0.0882 ng/mL.

What about the Cmax ([3]; female, human, C max,E, Visit E (day 0), mean, n=16) of the same molecule?
Its Cmax is 0.104 ng/mL.

And the Cmax ([3]; female, human, C max,E, Visit E (day 0), median)?
Its Cmax is 0.11 ng/mL.

And the concentration at -0.5 h ([3]; female, human, E3 baseline and trough, maximum, visit C1 (week 2))?
The concentration at -0.5 h was 0.0492 ng/mL.

What about the concentration at -0.5 h ([3]; female, human, E3 baseline and trough, maximum, visit C2 (week 4)) of the same molecule?
The concentration at -0.5 h was 0.0145 ng/mL.

What about the concentration at -0.5 h ([3]; female, human, serum estriol (E3) concentration, Visit C2 (day 28), maximum, −0.5 h (pre-dose)) of the same molecule?
The concentration at -0.5 h was 0.0145 ng/mL.

And the concentration at -0.5 h ([3]; female, human, serum estriol (E3) concentration, Visit C2 (day 28), mean, −0.5 h (pre-dose))?
The concentration at -0.5 h was 0.00091 ng/mL.

What about the concentration at -0.5 h ([3]; female, human, serum estriol (E3) concentration, Visit C2 (day 28), median, −0.5 h (pre-dose)) of the same molecule?
Its concentration at -0.5 h is 0 ng/mL.

What about the concentration at -0.5 h ([3]; female, human, serum estriol (E3) concentration, Visit C2 (day 28), minimum, −0.5 h (pre-dose)) of the same molecule?
Its concentration at -0.5 h is 0 ng/mL.

What about the concentration at -0.5 h ([3]; female, human, serum estriol (E3) concentration, Visit E (day 0), maximum, −0.5 h (pre-dose)) of the same molecule?
Its concentration at -0.5 h is 0 ng/mL.

What about the concentration at -0.5 h ([3]; female, human, serum estriol (E3) concentration, Visit E (day 0), mean, −0.5 h (pre-dose)) of the same molecule?
The concentration at -0.5 h was 0 ng/mL.

And the concentration at -0.5 h ([3]; female, human, serum estriol (E3) concentration, Visit E (day 0), median, −0.5 h (pre-dose))?
Its concentration at -0.5 h is 0 ng/mL.

What about the concentration at -0.5 h ([3]; female, human, serum estriol (E3) concentration, Visit E (day 0), minimum, −0.5 h (pre-dose)) of the same molecule?
Its concentration at -0.5 h is 0 ng/mL.

What about the Tmax ([3]; female, human, t max,C2, Visit C2 (day 28), mean, n=8) of the same molecule?
Its Tmax is 7.2 h.

What about the Tmax ([3]; female, human, t max,C2, Visit C2 (day 28), median) of the same molecule?
Its Tmax is 7.9 h.

And the Tmax ([3]; female, human, t max,E, Visit E (day 0), mean, n=15)?
Its Tmax is 2.5 h.

And the Tmax ([3]; female, human, t max,E, Visit E (day 0), median)?
Its Tmax is 2.2 h.

What about the “exposure (AUC0–24) at end of initial therapy compared with study entry” value ([3]; human, in vivo) of the same molecule?
The value was “significantly lower”.

What about the concentration at -0.5 h ([3]; human, trough E3 serum concentration, one subject, visit C1) of the same molecule?
The concentration at -0.5 h was 0.0223 ng/mL.

What about the “E3 baseline and trough” value ([3]; maximum, visit C1 (week 2)) of the same molecule?
The value was 49.20 pg/mL.

What about the “E3 baseline and trough” value ([3]; maximum, visit C2 (week 4)) of the same molecule?
Its value is 14.50 pg/mL.

What about the “E3 baseline and trough” value ([3]; maximum, visit C3 (week 8)) of the same molecule?
Its value is 0.00 pg/mL.

And the “E3 baseline and trough” value ([3]; maximum, visit C4 (week 12))?
Its value is 0.00 pg/mL.

What about the “E3 baseline and trough” value ([3]; maximum, visit E (day 0, baseline)) of the same molecule?
The value was 0.00 pg/mL.

What about the “E3 baseline and trough” value ([3]; mean (SD), visit C1 (week 2), n=14) of the same molecule?
Its value is 5.11 (14.01)^a pg/ml.

And the “E3 baseline and trough” value ([3]; mean (SD), visit C2 (week 4))?
The value was 0.91(3.63) pg/ml.

And the “E3 baseline and trough” value ([3]; mean (SD), visit C3 (week 8))?
The value was 0.00 pg/mL.

And the “E3 baseline and trough” value ([3]; mean (SD), visit C4 (week 12))?
The value was 0.00 pg/mL.

And the “E3 baseline and trough” value ([3]; mean (SD), visit E (day 0, baseline))?
The value was 0.00 pg/mL.

What about the “E3 baseline and trough” value ([3]; minimum, visit C1 (week 2)) of the same molecule?
Its value is 0.00 pg/mL.

What about the “E3 baseline and trough” value ([3]; minimum, visit C2 (week 4)) of the same molecule?
Its value is 0.00 pg/mL.

And the “E3 baseline and trough” value ([3]; minimum, visit C3 (week 8))?
The value was 0.00 pg/mL.

What about the “E3 baseline and trough” value ([3]; minimum, visit C4 (week 12)) of the same molecule?
The value was 0.00 pg/mL.

What about the “E3 baseline and trough” value ([3]; minimum, visit E (day 0, baseline)) of the same molecule?
Its value is 0.00 pg/mL.

And the “C max at visit C2 compared to visit E” value ([3]; p < 0.0001)?
Its value is “significantly lower”.

What about the “subjects without any quantifiable concentration of E3” value ([3]; visit C2 (day 28)) of the same molecule?
Its value is “half”.

And the “time of serum E3 increase post-insertion” value ([3]; visit C2 (day 28))?
The value was 6 to 8 h.

And the “time of C max post-insertion” value ([3]; visit E (day 0), first application)?
The value was 2 to 3 h.

What about the “nuclear retention time of the receptor complex” value [1] of the same molecule?
The value was < 6 h.

And the “association with risk of BC” value (breast cancer)?
Its value is “neither the use of vaginal E2 and E3 preparations nor oral E3 were associated with a risk of BC”.

What about the “serum E2 or E3” value ([2]; vaginal 0.25 mg E3 twice weekly, 12 weeks, no PK values determined) of the same molecule?
The value was “no increase”.

And the “serum levels of E3” value ([2]; vaginal application of conventional 0.50 mg dose of E3, ref [8]–[39])?
Its value is “increased”.

What about the “metabolism into E1 or E2” value ([4]; E3 is an end product of estrogen metabolism) of the same molecule?
The value was “cannot be transformed back”.

And the metabolic clearance [4]?
Its metabolic clearance is “rapid”.

And the “vaginal absorption as the vaginal epithelium matures” value ([4]; within a few days to weeks after start of vaginal treatment)?
The value was “decreases”.
